Test results from article PMC6792352, “Limited Chemical Structural Diversity Found to Modulate Thyroid Hormone Receptor in the Tox21 Chemical Library” (Environmental Health Perspectives, 2019).
Where a name gives a salt, the structure may show the parent alone.

experiment: in vitro; conditions: rat, gh3-tre-luc cells, AC50 (uM) modified / 1000

Row | Structure (SMILES) | CC50 at 24 h [µM]
1 | CN1CC(=O)N=C1NC(=O)Nc1cccc(Cl)c1 [Fenobam] | > 50
2 | CC(=O)OCC(=O)[C@@]1(OC(C)=O)[C@@H](C)C[C@H]2[C@@H]3C[C@H](F)C4=CC(=O)C=C[C@]4(C)[C@@]3(F)[C@@H](O)C[C@@]21C [Diflorasone diacetate] | > 50
3 | CC1=C(C(=O)Nc2ccccc2)S(=O)(=O)CCO1 [Oxycarboxin] | 40.7
4 | CC(=O)Nc1ccc2c(c1)Cc1cc(NC(C)=O)ccc1-2 [2,7-Acetylaminofluorene] | > 90
5 | C[CH2][Ge]([Cl])([CH2]C)[CH2]C [Triethylgermanium chloride] | > 90
6 | O=C1[C@@H]2[C@H]3CC[C@H](C3)[C@@H]2C(=O)N1CCCCN1CCN(c2ncccn2)CC1 [Tandospirone] | > 50
7 | CCCCC(CC)COCCC#N (centres unmarked) [3-((2-Ethylhexyl)oxy)propionitrile] | > 90
8 | CC(C)(C)CC(C)(C)c1ccccc1O [(1,1,3,3-Tetramethylbutyl)phenol (all isomers)] | 31.1
9 | CC(NN)c1ccccc1 (centres unmarked) [Mebanazine] | > 50
10 | CCCCCCOCCOCCO [2-[2-(Hexyloxy)ethoxy]ethanol] | > 90
11 | OCCCCC(O)CO (centres unmarked) [1,2,6-Hexanetriol] | > 90
12 | O=C(Cn1ccnc1[N+](=O)[O-])NCCO [Etandazole] | > 50
13 | CC(C)CCCC(C)N (centres unmarked) [2-Amino-6-methylheptane] | > 50
14 | CCN(CC)c1c([N+](=O)[O-])cc(C(F)(F)F)c(N)c1[N+](=O)[O-] [Dinitramine] | 85.3
15 | CC(C)=CCC/C(C)=C/CO [Geraniol] | > 90
16 | COc1ccc(COC(C)=O)cc1 [4-Methoxybenzyl acetate] | > 80
17 | O=S1(=O)CC(Cl)(Cl)C(Cl)(Cl)C1 [3,3,4,4-Tetrachlorotetrahydrothiophene 1,1-dioxide] | 1.02
18 | CCOC(=O)CC(=O)C(=O)OCC [Sodium diethyl oxaloacetate] | > 90
19 | C[C@H]1O[C@@H](O[C@H]2[C@@H](O)C[C@H](O[C@H]3[C@@H](O)C[C@H](O[C@H]4CC[C@@]5(C)[C@H](CC[C@@H]6[C@@H]5CC[C@]5(C)[C@@H](C7=CC(=O)OC7)CC[C@]65O)C4)O[C@@H]3C)O[C@@H]2C)C[C@H](O)[C@@H]1O [Digitoxin] | > 60
20 | O=C(OCc1ccccc1)c1ccccc1O [Benzyl salicylate] | > 90
21 | COCCCOc1ccnc(C[S+]([O-])c2nc3ccccc3[nH]2)c1C (centres unmarked) [Rabeprazole sodium] | > 90

Row | Structure (SMILES) | CC50 at 24 h [µM]
22 | CSc1nc2cc(Cl)c(Oc3cccc(Cl)c3Cl)cc2[nH]1 [Triclabendazole] | 28.5
23 | O=CNc1ccccc1 [Formanilide] | > 90
24 | CCc1cc(S(=O)(=O)O)c2cc(C(C)C)cccc1-2 [Egualen sodium] | > 50
25 | CCCCCCCCCC[N+](C)(C)[O-] [N,N-Dimethyldecylamine oxide] | > 90
26 | CN(c1nccc(=O)[nH]1)C1CCN(c2nc3ccccc3n2Cc2ccc(F)cc2)CC1 [Mizolastine] | > 50
27 | c1ccc(C(O[C@@H]2CCCN(CCc3ccc4c(c3)OCO4)C2)c2ccccc2)cc1 [Zamifenacin fumarate] | 26.4
28 | CCC=O [Propanal] | > 90
29 | CCCCOc1ccc(OCCCN2CCOCC2)cc1 [Pramoxine hydrochloride] | > 20
30 | CC(C)(C)NCC(O)COc1cccc2c1C[C@H](O)[C@H](O)C2 (mixture of isomers) [Nadolol] | > 20
31 | COC(OC)(C(=O)c1ccccc1)c1ccccc1 [2,2-Dimethoxy-1,2-diphenylethanone] | > 90
32 | C=COCCOCCOC=C [{2-[2-(Ethenyloxy)ethoxy]ethoxy}ethene] | > 90
33 | CC1CC(=O)NN=C1c1ccc(NCC(C)(C)NCC(O)COc2cc(Cl)ccc2C#N)cc1 (centres unmarked) [Oberadilol] | > 50
34 | c1ccc(CCc2ccccc2)cc1 [Bibenzyl] | > 90
35 | NC12CC3CC(CC(C3)C1)C2 [Amantadine] | 36.1
36 | CCCCCCCCCCOC(C)=O [Decyl acetate] | > 90
37 | CC1=C(C(=O)OCCN(Cc2ccccc2)c2ccccc2)C(c2cccc([N+](=O)[O-])c2)C(P2(=O)OCC(C)(C)CO2)=C(C)N1 (centres unmarked) [Efonidipine] | 23.8
38 | CCOC(=O)NCCC[Si](OCC)(OCC)OCC [Ethyl [3-(triethoxysilyl)propyl]carbamate] | > 90
39 | O=C(O)c1cccc(Cl)n1 [6-Chloro-2-picolinic acid] | > 90
40 | CC(C)c1ccc(O)c(C(C)C)c1 [2,4-Diisopropylphenol] | > 90
41 | CC(=O)OCCC(C)C [3-Methylbutyl acetate] | > 90
42 | Cc1cc(C(C)(C)C)cc(C)c1CC1=NCCN1 [Xylometazoline hydrochloride] | > 20

Row | Structure (SMILES) | CC50 at 24 h [µM]
43 | N#CCC(=O)NN [Cyacetacide] | > 50
44 | CCN(CC)c1ccc(C(=O)c2ccccc2C(=O)O)c(O)c1 [2-[4-(Diethylamino)-2-hydroxybenzoyl]benzoic acid] | > 90
45 | C=Cc1ccc(C(C)(C)C)cc1 [4-tert-Butylstyrene] | > 90
46 | CCOC(=O)C(C)OC(=O)c1cc(Oc2ccc(C(F)(F)F)cc2Cl)ccc1[N+](=O)[O-] (centres unmarked) [Lactofen] | > 90
47 | CCCCCCCCCCCCCCCCCC(=O)OC[C@@H](O)[C@H]1OC[C@H](O)[C@H]1O [Anhydrosorbitol stearate] | > 50
48 | CCCCCCC(C)O (centres unmarked) [2-Octanol] | > 90
49 | COc1cc(C(=S)N2CCOCC2)cc(OC)c1OC [Tritiozine] | > 50
50 | CC(=O)Nc1ccc(C)cc1 [N-Acetyl-p-toluidine] | > 90
51 | Oc1ccc2ccccc2c1 [2-Naphthalenol] | > 90
52 | C[C@]12CCC(=O)C=C1CC[C@@H]1[C@@H]2[C@@H](O)C[C@@]2(C)[C@H]1CC[C@]2(O)C(=O)CO [Hydrocortisone] | > 90
53 | CCCc1c2oc(C(=O)O)cc(=O)c2cc2c(=O)cc(C(=O)O)n(CC)c12 [Nedocromil] | > 50
54 | CN1CCN2c3ncccc3Cc3ccccc3C2C1 (centres unmarked) [Mirtazapine] | > 50
55 | N#CCCC(Br)(C#N)CBr (centres unmarked) [1,2-Dibromo-2,4-dicyanobutane] | 16.2
56 | C1CCOC1 [Tetrahydrofuran] | > 100
57 | CCC(C)COC(=O)CC(C)C (centres unmarked) [2-Methylbutyl isovalerate] | > 90
58 | C=C(C)C(=O)OCC1CCCO1 (centres unmarked) [Tetrahydrofurfuryl methacrylate] | > 90
59 | Cc1c(Nc2ncccc2C(=O)O)cccc1C(F)(F)F [Flunixin meglumine] | 3.99
60 | CCCC[N+]1(C)CCCCC1 [1-Butyl-1-methylpiperidinium tetrafluoroborate] | > 90
61 | C[C@@H](O)[C@H]1C(=O)N2C(C(=O)O)=C(SCCN=CN)C[C@H]12 [Imipenem] | > 20
62 | C=C1/C(=C\C=C2/CCC[C@]3(C)[C@@H]([C@H](C)/C=C/[C@H](C)C(C)C)CC[C@@H]23)C[C@@H](O)C[C@@H]1O [1-alpha-Hydroxyergocalciferol] | 37.5
63 | O=C(O)c1cc2ccccc2nc1C(=O)O [2,3-Quinolinedicarboxylic acid] | > 90

Row | Structure (SMILES) | CC50 at 24 h [µM]
64 | CCCCCCCCCCO [1-Decanol] | > 90
65 | Cc1ccc2c(c1[N+](=O)[O-])C(=O)c1ccccc1C2=O [2-Methyl-1-nitroanthraquinone] | 38.7
66 | ClCCOCCOCCCl [1,2-Bis(2-chloroethoxy)ethane] | > 90
67 | CC(CCO)CCCC(C)(C)O (centres unmarked) [3,7-Dimethyloctane-1,7-diol] | > 90
68 | COc1c(C)c2c(c(O)c1C/C=C(\C)CCC(=O)OCCN1CCOCC1)C(=O)OC2 [Mycophenolate mofetil] | 1.07
69 | O=[N+]([O-])c1cc(Cl)c(Cl)c(Cl)c1 [3,4,5-Trichloronitrobenzene] | > 90
70 | Cc1cccc(O)c1 [m-Cresol] | > 100
71 | CCCCCOc1ccc(C2SC(=O)NC2=O)cc1OCC (centres unmarked) [Risarestat] | > 50
72 | N=C(N)c1ccc(/C=C/c2ccc(C(=N)N)cc2O)cc1 [Hydroxystilbamidine bis(methanesulfonate)] | > 50
73 | CCCCC(CC)COC(=O)CC#N (centres unmarked) [2-Ethylhexyl cyanoacetate] | > 90
74 | COC(=O)Nc1nc2ccc([S+]([O-])c3ccccc3)cc2[nH]1 (centres unmarked) [Oxfendazole] | > 50
75 | CC(=O)c1ccc[nH]1 [2-Acetylpyrrole] | > 90
76 | CCOC(=O)[C@@](C)(N)Cc1ccc(O)c(O)c1 [Methyldopate hydrochloride] | > 20
77 | Oc1ncnc2[nH]ncc12 [Allopurinol] | > 90
78 | Cc1ccc(OC(=O)c2ccccc2O)cc1 [Salicylic acid p-tolyl ester] | > 90
79 | Cc1ccccc1OCC(O)CO (centres unmarked) [Mephenesin] | > 50
80 | C/C=C1/C(=O)C[C@H]2[C@@H]3CCC4=CC(=O)CC[C@]4(C)[C@H]3CC[C@]12C [Guggulsterone E] | > 90
81 | C[C@@H](Oc1ccc(CNC(=O)c2cccnc2Oc2ccc3c(c2)OCO3)c(F)c1)C(=O)O [CP-671305] | > 90
82 | O=C/C=C/c1ccccc1 [3-Phenylprop-2-enal] | > 90

same assay, conditions: rat, gh3-tre-luc cells, AC50 (uM) modified / 1000, Tox21_110001=Tox21_112891; viability, 1 nM T3 present, 24 h

Row | Structure (SMILES) | CC50 at 24 h [µM]
83 | CCN(CC)CCc1c[nH]c2ccccc12 [N,N-Diethyltryptamine fumarate] | > 100

same assay, conditions: rat, gh3-tre-luc cells, AC50 (uM) modified / 1000, Tox21_110001=Tox21_200675; viability, 1 nM T3 present, 24 h

Row | Structure (SMILES) | CC50 at 24 h [µM]
84 | Oc1ccc(Cl)c(Cl)c1 [3,4-Dichlorophenol] | > 90

same assay, conditions: rat, gh3-tre-luc cells, AC50 (uM) modified / 1000, Tox21_110001=Tox21_201255; viability, 1 nM T3 present, 24 h

Row | Structure (SMILES) | CC50 at 24 h [µM]
85 | CCN(CC)N=O [N-Nitrosodiethylamine] | > 90

same assay, conditions: rat, gh3-tre-luc cells, AC50 (uM) modified / 1000, Tox21_110001=Tox21_301347; viability, 1 nM T3 present, 24 h

Row | Structure (SMILES) | CC50 at 24 h [µM]
86 | COP(=S)(OC)Oc1c(Cl)cc(C)cc1Cl [Tolclofos-methyl] | > 90
